According to PubChem BioAssay AID330 (DTP/NCI, 2004):
“And” between values parts separate entries of the source, which are not always exact repeats. Identical values can stand only once. Inconclusive results and toxic doses are left out. How the source made its calls: active means survival T/C of 150% or more; inactive means T/C below 125% in these data.

Tested on: P388 leukemia ip, CD2F1 mice, survival T/C
Assay: NCI In Vivo Anticancer Drug Screen. Data for tumor model P388 Leukemia (intraperitoneal) in CD2F1 (CDF1) mice
Details: endpoint: median survival time, higher = longer survival
Procedure, shortened: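 Mice carrying the transplanted tumor received test compound or vehicle. Survival was recorded in each group, and the value is the treated-group measurement divided by that of the vehicle-treated control group.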

[1] = dose: 50.0 mg/kg/injection, schedule: Q01DX005 (ip), vehicle: saline with Tween-80
[2] = dose: 100.0 mg/kg/injection, schedule: Q01DX005 (ip), vehicle: saline with Tween-80
[3] = dose: 200.0 mg/kg/injection, schedule: Q01DX005 (ip), vehicle: saline with Tween-80
[4] = dose: 50.0 mg/kg/injection, schedule: Q01DX005 (ip), vehicle: saline
[5] = dose: 100.0 mg/kg/injection, schedule: Q01DX005 (ip), vehicle: saline
[6] = dose: 200.0 mg/kg/injection, schedule: Q01DX005 (ip), vehicle: saline
[7] = dose: 50.0 mg/kg/injection, schedule: Q01DX005 (ip), vehicle: Klucel (hydroxypropylcellulose) (HPC)
[8] = dose: 100.0 mg/kg/injection, schedule: Q01DX005 (ip), vehicle: Klucel (hydroxypropylcellulose) (HPC)
[9] = dose: 200.0 mg/kg/injection, schedule: Q01DX005 (ip), vehicle: Klucel (hydroxypropylcellulose) (HPC)
[10] = dose: 12.5 mg/kg/injection, schedule: Q01DX009 (ip), vehicle: saline with Tween-80
[11] = dose: 25.0 mg/kg/injection, schedule: Q01DX009 (ip), vehicle: saline with Tween-80
[12] = dose: 50.0 mg/kg/injection, schedule: Q01DX009 (ip), vehicle: saline with Tween-80

Measured: T/C

CCOCCNc1ncnc2c1cnn2C
inactive: dose: 12.5 mg/kg/injection, schedule: Q04DX003 (ip), vehicle: saline 91 % of control | dose: 25.0 mg/kg/injection, schedule: Q04DX003 (ip), vehicle: saline 88 % of control | dose: 50.0 mg/kg/injection, schedule: Q04DX003 (ip), vehicle: saline 93 % of control | dose: 100.0 mg/kg/injection, schedule: Q04DX003 (ip), vehicle: saline 95 % of control

COc1cc(C2C3=C(CC(C)(C)CC3=O)N(CC(=O)O)C3=C2C(=O)CC(C)(C)C3)ccc1O
inactive: dose: 50.0 mg/kg/injection, schedule: Q01DX009 (ip), vehicle: saline 95 % of control | dose: 100.0 mg/kg/injection, schedule: Q01DX009 (ip), vehicle: saline 102 % of control | dose: 200.0 mg/kg/injection, schedule: Q01DX009 (ip), vehicle: saline 113 % of control

CCOc1ccc2c(c1)/C(=C\C=C\C1CC(C)C3CC(OCC)CCC3N1CC)CC(C)N2CC (configuration not stated)
inactive: dose: 1.25 mg/kg/injection, schedule: Q01DX009 (ip), vehicle: saline + alcohol 120 % of control

Cc1ccc2ccccc2[n+]1CC(=O)c1ccc([N+](=O)[O-])cc1
inactive: dose: 6.25 mg/kg/injection, schedule: Q01DX005 (ip), vehicle: Klucel (hydroxypropylcellulose) (HPC) 108 % of control | dose: 12.5 mg/kg/injection, schedule: Q01DX005 (ip), vehicle: Klucel (hydroxypropylcellulose) (HPC) 108 % of control | dose: 25.0 mg/kg/injection, schedule: Q01DX005 (ip), vehicle: Klucel (hydroxypropylcellulose) (HPC) 103 % of control | [1] 96 % of control | [2] 102 % of control | [3] 111 % of control

OCC12CC=CCC1C1CC=CCC1O2 (configuration not stated)
inactive: [4] 101 % of control | [5] 99 % of control | [6] 103 % of control

Cc1ccc(S(=O)(=O)NCCCCCCNS(=O)(=O)c2ccc(C)cc2)cc1
inactive: [7] 86 % of control and 90 % of control | [8] 89 % of control | [9] 86 % of control and 91 % of control

O=C1C/C(=N\Nc2nc(-c3ccc(Cl)cc3)cs2)C(c2ccccc2)N1c1ccccc1 (configuration not stated)
inactive: dose: 100.0 mg/kg/injection, schedule: Q01DX001 (ip), vehicle: saline with Tween-80 98 % of control | dose: 200.0 mg/kg/injection, schedule: Q01DX001 (ip), vehicle: saline with Tween-80 90 % of control | dose: 400.0 mg/kg/injection, schedule: Q01DX001 (ip), vehicle: saline with Tween-80 90 % of control

COc1cc2c(cc1OC)C(CCN1C(=O)CCC1=O)=NCC2
inactive: dose: 50.0 mg/kg/injection, schedule: Q01DX009 (ip), vehicle: saline sonified 100 % of control | dose: 100.0 mg/kg/injection, schedule: Q01DX009 (ip), vehicle: saline sonified 100 % of control | dose: 200.0 mg/kg/injection, schedule: Q01DX009 (ip), vehicle: saline sonified 95 % of control

Cc1cc(O)c(C(=O)/C=C/c2ccnc3ccccc23)c(=O)o1
inactive: dose: 60.0 mg/kg/injection, schedule: Q01DX005 (ip), vehicle: Klucel (hydroxypropylcellulose) (HPC) 104 % of control | dose: 120.0 mg/kg/injection, schedule: Q01DX005 (ip), vehicle: Klucel (hydroxypropylcellulose) (HPC) 108 % of control

CN(C)CCCNc1nc(NCCCN(C)C)c2nc(-c3ccccc3)c(-c3ccccc3)nc2n1
inactive: dose: 12.5 mg/kg/injection, schedule: Q01DX005 (ip), vehicle: saline with Tween-80 97 % of control | dose: 25.0 mg/kg/injection, schedule: Q01DX005 (ip), vehicle: saline with Tween-80 88 % of control | [1] 88 % of control

O=C1CCC2=C1C(c1ccccc1)C1=C(CCC1=O)O2
inactive: dose: 100.0 mg/kg/injection, schedule: Q04DX002 (ip), vehicle: Klucel (hydroxypropylcellulose) (HPC) 100 % of control | dose: 200.0 mg/kg/injection, schedule: Q04DX002 (ip), vehicle: Klucel (hydroxypropylcellulose) (HPC) 100 % of control | dose: 400.0 mg/kg/injection, schedule: Q04DX002 (ip), vehicle: Klucel (hydroxypropylcellulose) (HPC) 111 % of control

CCCCN(CCCC)CC(O)c1c(Br)c2ccccc2c2ccccc12 (configuration not stated)
inactive: [10] 107 % of control | [11] 109 % of control | [12] 124 % of control

CC(=O)NCCSSCCSC(=S)N1CCCCC1
inactive: [7] 112 % of control | [8] 107 % of control | [9] 102 % of control

COC(=O)CCCCCCCCCCCC1C=CCC1 (configuration not stated)
inactive: dose: 100.0 mg/kg/injection, schedule: Q01DX001 (ip), vehicle: saline 105 % of control | dose: 200.0 mg/kg/injection, schedule: Q01DX001 (ip), vehicle: saline 100 % of control | dose: 400.0 mg/kg/injection, schedule: Q01DX001 (ip), vehicle: saline 104 % of control

COc1cccc([B-]23OCC[N+]2(CNC(=O)C2=C(O)C4(O)C(=O)C5=C(O)c6c(O)cccc6C(C)(O)C5CC4C(N(C)C)C2=O)CCO3)c1 (configuration not stated)
inactive: [7] 110 % of control | [8] 105 % of control | [9] 115 % of control

CCOC(=O)c1c(C)n(O)c2ccc(Cl)cc2c1=O
inactive: dose: 50.0 mg/kg/injection, schedule: Q01DX009 (ip), vehicle: Klucel (hydroxypropylcellulose) (HPC) 100 % of control | dose: 100.0 mg/kg/injection, schedule: Q01DX009 (ip), vehicle: Klucel (hydroxypropylcellulose) (HPC) 102 % of control | dose: 200.0 mg/kg/injection, schedule: Q01DX009 (ip), vehicle: Klucel (hydroxypropylcellulose) (HPC) 104 % of control

Cc1ccc([N+]([O-])=NC#N)cc1
inactive: dose: 7.5 mg/kg/injection, schedule: Q04DX003 (ip), vehicle: Klucel (hydroxypropylcellulose) (HPC) 97 % of control | dose: 15.0 mg/kg/injection, schedule: Q04DX003 (ip), vehicle: Klucel (hydroxypropylcellulose) (HPC) 100 % of control | dose: 30.0 mg/kg/injection, schedule: Q04DX003 (ip), vehicle: Klucel (hydroxypropylcellulose) (HPC) 112 % of control

FC12CCC(c3ccccc3)(CC1)CC2
inactive: dose: 100.0 mg/kg/injection, schedule: Q04DX003 (ip), vehicle: Klucel (hydroxypropylcellulose) (HPC) 98 % of control | dose: 200.0 mg/kg/injection, schedule: Q04DX003 (ip), vehicle: Klucel (hydroxypropylcellulose) (HPC) 100 % of control | dose: 400.0 mg/kg/injection, schedule: Q04DX003 (ip), vehicle: Klucel (hydroxypropylcellulose) (HPC) 103 % of control

O=C(/C=C/c1ccccc1[N+](=O)[O-])c1ccccc1
inactive: dose: 50.0 mg/kg/injection, schedule: Q04DX003 (ip), vehicle: saline with Tween-80 99 % of control | dose: 100.0 mg/kg/injection, schedule: Q04DX003 (ip), vehicle: saline with Tween-80 101 % of control | dose: 200.0 mg/kg/injection, schedule: Q04DX003 (ip), vehicle: saline with Tween-80 101 % of control | dose: 400.0 mg/kg/injection, schedule: Q04DX003 (ip), vehicle: saline with Tween-80 108 % of control

CN1C(=O)C2CC(=O)N(Cc3ccccc3)C(=O)C2C1=O (configuration not stated)
inactive: [1] 96 % of control | [2] 87 % of control | [3] 87 % of control

NC(N)=NC(N)=Nc1c(F)c(F)c(F)c(F)c1F
inactive: dose: 6.25 mg/kg/injection, schedule: Q01DX009 (ip), vehicle: saline with Tween-80 107 % of control | [10] 100 % of control | [11] 101 % of control and 113 % of control | [12] 116 % of control

O=C1CC(C(=O)O)C(C(=O)O)O1 (configuration not stated)
inactive: [4] 100 % of control | [5] 111 % of control | [6] 93 % of control

N#CC(C#N)C(c1ccccc1)c1cccc2ccccc12 (configuration not stated)
inactive: dose: 100.0 mg/kg/injection, schedule: Q01DX001 (ip), vehicle: Klucel (hydroxypropylcellulose) (HPC) 101 % of control | dose: 200.0 mg/kg/injection, schedule: Q01DX001 (ip), vehicle: Klucel (hydroxypropylcellulose) (HPC) 109 % of control | dose: 400.0 mg/kg/injection, schedule: Q01DX001 (ip), vehicle: Klucel (hydroxypropylcellulose) (HPC) 104 % of control
